Experiments:
SPDEF = assay: RT-PCR of SPDEF in IL-13-treated SAEC monolayer; type: cell-based, human; conditions: SAEC monolayer at ALI, IL-13 18 h
Experimental: FIGS. 6A-6B. AR inhibition prevents IL-13-induced expression of Mucin and transcription factor SPDEF in airway epithelial cell monolayer. (A) The airway epithelial cell monolayer at ALI was serum starved without or with fidarestat and incubated with IL-13 for 18 h. Total RNA was isolated and subsequently RT-PCR was performed to assess the expression of Muc5AC and SPDEF. The bar diagrams show densitometric analysis of the corresponding blots (n=4). *p<0.001 vs Control; **p<0.001 vs IL-13; (B) The monolayer of ciliated airway cells at ALI was treated with AR inhibitor for 24 h and subsequently incubated with IL-13 for 24 or 48 h. At the end of incubation, cell lysate was prepared and subjected to western blotting using antibodies against Muc5AC, Muc5B, and SPDEF. The membranes were stripped and re-probed with antibodies against GAPDH to show the equal loading of protein. A representative blot is shown (n=4). *p<0.0001 vs Control; **p<0.001 vs IL-13.
For air-liquid interface (ALI) culture, SAEC were seeded at 8.5×10^4 cells/12-mm-diameter PET transparent insert with […] pores (12-well millicell culture insert; Millipore) and pre-coated with rat tail collagen type-1 (Sigma-Aldrich). The cells were grown submerged in the differentiation medium as described earlier by Zhen et al. (Am J Respir Cell Mol Biol 36: 244-253, 2007). […]

STAT-6 = assay: Western blot of STAT-6 phosphorylation in airway epithelial monolayer; type: cell-based, human; conditions: ALI monolayer, AR inhibitor 24 h prior to IL-13
Experimental: FIG. 7. AR inhibition prevents IL-13-induced phosphorylation of JAK-1, ERK1/2 and STAT-6 in airway epithelial monolayer. The ciliated monolayer of airway cells at ALI was treated with AR inhibitor for 24 h and stimulated with IL-13 for different time periods as indicated. At the end of incubation, cells were lysed and cell lysate was subjected to western blotting using antibodies against phosphorylated and nonphosphorylated JAK-1, ERK1/2 and STAT-6 to analyze the activation of these signaling proteins. A representative blot is shown (n=4). #p<0.001 vs Control; *p<0.01 and **p<0.001 vs IL-13. For air-liquid interface (ALI) culture, SAEC were seeded at 8.5×10^4 cells/12-mm-diameter PET transparent insert with […] pores (12-well millicell culture insert; Millipore) and pre-coated with rat tail collagen type-1 (Sigma-Aldrich). The cells were grown submerged in the differentiation medium as described earlier by Zhen et al. (Am J Respir Cell Mol Biol 36: 244-253, 2007). […] Protein levels were determined using Bradford reagent (Biorad, Hercules, Calif.). […] The blots were then washed, exposed to HRP-conjugated secondary antibodies (1:5,000 dilution) for 1 h, and the antigen-antibody complex was detected by enhanced chemiluminescence (Amersham Pharmacia Biotech, Piscataway, N.J., USA). […]

NC(=O)[C@@H]1C[C@]2(NC(=O)NC2=O)c2cc(F)ccc2O1 [fidarestat, (2S,4S)-2-aminoformyl-6-fluoro-spiro[chroman-4,4′-imidazolidine]-2′,5′-dione]
IL-13-induced SPDEF mRNA levels (SPDEF): decreased significantly
IL-13-induced phosphorylation of STAT-6 (STAT-6): decreased significantly

— patent US8785483B2, “Methods for treating COPD” (The Board of Regents of the University of Texas System, priority 2010, dated 2014)
